pIC50: −log10 of the molar value.
What follows are compounds tested against Cyclophilin A (CypA) (Homo sapiens (Human), UniProt P62937) (assay: Cyclophilin PPIase enzymatic assay (chymotrypsin coupled), CypA). Conditions: activity test at 100 μM on CypA; read-out: Inhibition (%).
Type: biochemical
Method: (§1) Cyclophilin A, B protein carrying a hexahistidine tag (His-Tag) at the C-terminus, were expressed in Escherichia coli and purified. Briefly, cultures of C41(DE3) cells were grown at 37° C. for ˜1 h until the culture reached an optical density of 0.6 at 600 nm, and induced with 1 mM isopropyl β-D-thiogalactoside for 4 h at 37° C. or overnight at 22° C. for cylophilin A and cyclophilin B, respectively. Cell pellets (1 L) were resuspended in a lysis buffer (20 mM NaH2PO4 (pH 7.8), 300 mM NaCl, 7 mM β-mercaptoethanol, 1 mg/ml lysozyme, 0.1 U/μl Desoxyribonuclease and complete protease inhibitor tablets (Roche)). The sonicated cell lysates were clarified by centrifugation at 10 000 g for 45 min at 4° C., chromatographed on a Ni-NTA column and washed with buffer: (20 mM NaH2PO4 (pH7.8), 300 mM NaCl, 50 mM imidazole, 7 mM β-mercaptoethanol, 10% glycerol). The bound protein was eluted in 1 ml fractions with buffer: (20 mM NaH2PO4 (pH7.8), 300 mM NaCl, 250 mM imidazole, 7 mM β-mercaptoethanol, 10% glycerol) and monitored by the Bradford colorimetric assay. The purity of each cyclophilin was determined by Coomassie-stained SDS-PAGE analysis.
(§2) The reaction was initiated by adding 20 μL of 3.2 mM peptide substrate (Suc-Ala-Ala-cis-Pro-Phe-pNA) in LiCl/TFE solution with rapid inversion. […] The final concentration of LiCl in the assay was 20 mM; TFE was present at a concentration of 4% (v/v). Absorbance readings were collected every 1 s by spectrophotometer. The inhibition assays of compounds were performed in the same manner as mentioned above. A 5 μL aliquot of the compounds in DMSO was added to the cyclophilin solution in the assay buffer. The assay was started by the addition of the substrate. Cyclosporine A was used as control in all measurement. The percentage inhibition of cyclophilin PPiase activity were calculated from slopes and values obtained represent an average of at least two independent measurements.

Chain of Cyclophilin A (CypA) (P62937 whole entry): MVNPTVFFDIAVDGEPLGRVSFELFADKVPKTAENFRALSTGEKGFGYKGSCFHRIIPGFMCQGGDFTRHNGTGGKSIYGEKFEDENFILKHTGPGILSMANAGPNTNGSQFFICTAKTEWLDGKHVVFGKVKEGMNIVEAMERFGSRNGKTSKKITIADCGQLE

Q: For `Nc1ccc(CNC(=O)NCC(=O)N2CCCC(O)C2)cc1` (centres unmarked) [Compound F540, 1-(4-aminobenzyl)-3-(2-(3-hydroxy-piperidin-1-yl)-2-oxoethyl)urea], which inhibition at 100 µM is on record?
A: The inhibition at 100 µM was 32.6%.

Q: How did the inhibition at 100 µM turn out when `CCOC(=O)CNC(=O)NCc1nc2ccccc2[nH]1` [Compound F538, ethyl 2-(3-((1H-benzo[d]imidazol-2-yl)methyl)ureido)acetate] was run?
A: Its inhibition at 100 µM is 15.5%.

Each compound was assayed against Cyclophilin B (CypB) (Homo sapiens (Human), UniProt P23284) (assay: Cyclophilin PPIase enzymatic assay (chymotrypsin coupled), CypB). Conditions: not given.
Type: biochemical
Method: as §1, §2

Chain of Cyclophilin B (CypB) (P23284 34-216): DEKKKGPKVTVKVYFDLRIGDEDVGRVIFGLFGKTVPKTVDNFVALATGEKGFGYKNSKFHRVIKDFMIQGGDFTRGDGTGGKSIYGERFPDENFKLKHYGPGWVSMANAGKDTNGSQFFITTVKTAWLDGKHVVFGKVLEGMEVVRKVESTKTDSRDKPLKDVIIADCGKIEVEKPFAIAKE

Q: With `CN(C(=O)CNC(=O)NCc1ccc(N)nc1)C1CCCCC1` [Compound F595, 2-(3-((6-aminopyridin-3-yl)methyl)ureido)-N-cyclohexyl-N-methylacetamide] as the compound, how does the inhibition at 100 µM read?
A: Its inhibition at 100 µM is 29.1%.

Q: For `Cc1noc(C2CCCN2C(=O)CNC(=O)NCc2ccc(N)nc2)n1` (centres unmarked) [Compound F593, 1-((6-aminopyridin-3-yl)methyl)-3-(2-(2-(3-methyl-1,2,4-oxadiazol-5-yl)pyrrolidin-1-yl)-2-oxoethyl)urea], which inhibition at 100 µM is on record?
A: Its inhibition at 100 µM is 23.4%.

Q: `CCOC(=O)CNC(=O)NCc1cccc(C(F)(F)F)c1` [Compound F514, ethyl 2-(3-(3-trifluoromethylbenzyl)ureido)acetate] was tested. Which inhibition at 100 µM did it give?
A: The inhibition at 100 µM was 19.5%.

Q: For `Nc1ccc(CNC(=O)NCC(=O)N2CCCC2c2ccccn2)cn1` (centres unmarked) [Compound F586, 1-((6-aminopyridin-3-yl)methyl)-3-(2-oxo-2-(2-(pyridin-2-yl)pyrrolidin-1-yl)ethyl)urea], which inhibition at 100 µM is on record?
A: Its inhibition at 100 µM is 38.4%.

Q: `CCOC(=O)CNC(=O)NCc1ccc(F)cc1` [Compound F513, ethyl 2-(3-(4-fluorobenzyl)ureido)acetate] was tested. Which inhibition at 100 µM did it give?
A: Its inhibition at 100 µM is 23.3%.

Q: How did the inhibition at 100 µM turn out when `CN(C(=O)CNC(=O)NCc1ccc(N)nc1)c1ccc(F)cc1` [Compound F597, 2-(3-((6-aminopyridin-3-yl)methyl)ureido)-N-(4-fluorophenyl)-N-methylacetamide] was run?
A: Its inhibition at 100 µM is 46.3%.

Q: With `CCOC(=O)CNC(=O)NCc1cccc2c1OCCO2` [Compound F525, ethyl 2-(3-((2,3-dihydrobenzo[b][1,4]dioxin-5-yl)methyl)ureido)acetate] as the compound, how does the inhibition at 100 µM read?
A: Its inhibition at 100 µM is 21.6%.

Q: `CCOC(=O)CNC(=O)NCc1cc(Cl)cc(Cl)c1` [Compound F520, ethyl 2-(3-(3,5-dichlorobenzyl)ureido)acetate] was tested. Which inhibition at 100 µM did it give?
A: Its inhibition at 100 µM is 18.9%.

Q: With `COc1ccccc1C1CCCN1C(=O)CNC(=O)NCc1ccc(N)nc1` (centres unmarked) [Compound F587, 1-((6-aminopyridin-3-yl)methyl)-3-(2-(2-(2-methoxyphenyl)pyrrolidin-1-yl)-2-oxoethyl)urea] as the compound, how does the inhibition at 100 µM read?
A: The inhibition at 100 µM was 99%.

Q: `CCOC(=O)CNC(=O)NCc1ccc(O)cc1` [Compound F576, ethyl 2-(3-(4-hydroxybenzyl)ureido)acetate] was tested. Which inhibition at 100 µM did it give?
A: The inhibition at 100 µM was 18.4%.

Q: For `CCN(OCc1ccccc1)C(=O)CNC(=O)NCc1ccc(N)nc1` [Compound F599, 2-(3-((6-aminopyridin-3-yl)methyl)ureido)-N-(benzyloxy)-N-ethylacetamide], which inhibition at 100 µM is on record?
A: Its inhibition at 100 µM is 71.8%.

Q: `COc1cccc(CNC(=O)CNC(=O)NCc2ccc(N)cc2)c1` [Compound F563, 2-(3-(4-aminobenzyl)ureido)-N-3-methoxybenzylacetamide] was tested. Which inhibition at 100 µM did it give?
A: Its inhibition at 100 µM is 16.4%.

Q: `CSc1cccc(CN(C(=O)CNC(=O)NCc2ccc(N)nc2)C(C)C)c1` [Compound F592, 2-(3-((6-aminopyridin-3-yl)methyl)ureido)-N-isopropyl-N-(3-(methylthio)benzyl)acetamide] was tested. Which inhibition at 100 µM did it give?
A: Its inhibition at 100 µM is 18.9%.

Q: For `Nc1ccc(CNC(=O)NCC(=O)N2CCC(O)CC2)cc1` [Compound F561, 1-(4-aminobenzyl)-3-(2-(4-hydroxy-piperidin-1-yl)-2-oxoethyl)urea], which inhibition at 100 µM is on record?
A: The inhibition at 100 µM was 15.1%.

Q: With `CCOC(=O)CNC(=O)NCCNc1ccccc1` [Compound F515, ethyl 2-(3-(2-(phenylamino)ethyl)ureido)acetate] as the compound, how does the inhibition at 100 µM read?
A: Its inhibition at 100 µM is 18.2%.

Q: With `CCOC(=O)CNC(=O)NCc1ccc(N)nc1` [Compound F536, ethyl 2-(3-((6-aminopyridin-3-yl)methyl)ureido)acetate] as the compound, how does the inhibition at 100 µM read?
A: Its inhibition at 100 µM is 47.6%.

Q: With `Nc1ccc(CNC(=O)Nn2cnc3ccccc3c2=O)cc1` [Compound F600, 1-(4-aminobenzyl)-3-(4-oxoquinazolin-3(4H)-yl)urea] as the compound, how does the inhibition at 100 µM read?
A: The inhibition at 100 µM was 65.8%.

Q: With `CCOC(=O)CNC(=S)NCc1ccc(N)nc1` [Compound F569, ethyl 2-(3-((6-aminopyridin-3-yl)methyl)thioureido)acetate] as the compound, how does the inhibition at 100 µM read?
A: The inhibition at 100 µM was 17.1%.

Q: For `CCOC(=O)CNC(=O)NCc1ccc(O)cc1O` [Compound F572, ethyl 2-(3-(2,4-dihydroxybenzyl)ureido)acetate], which inhibition at 100 µM is on record?
A: Its inhibition at 100 µM is 27.6%.

Q: `CCOC(=O)CNC(=O)NCCc1ccc(O)cc1` [Compound F517, ethyl 2-(3-(4-hydroxyphenylethyl)ureido)acetate] was tested. Which inhibition at 100 µM did it give?
A: Its inhibition at 100 µM is 20%.

Q: Which inhibition at 100 µM does the source give for `COC(=O)[C@H]1CCCN1C(=O)CNC(=O)NCc1ccc(N)cc1` [Compound F558, (R)-methyl 1-(2-(3-(4-aminobenzyl)ureido)acetyl)pyrrolidine-2-carboxylate] here?
A: The inhibition at 100 µM was 25.9%.

Q: `CCOC(=O)CNC(=O)NCc1cc(C)on1` [Compound F526, ethyl 2-(3-((5-methylisoxazol-3-yl)methyl)ureido)acetate] was tested. Which inhibition at 100 µM did it give?
A: The inhibition at 100 µM was 21.2%.

Q: How did the inhibition at 100 µM turn out when `CCOC(=O)CNC(=O)NCc1c(F)cccc1NC(C)=O` [Compound F565, ethyl 2-(3-(2-acetamido-6-fluorobenzyl)ureido)acetate] was run?
A: The inhibition at 100 µM was 34.5%.

Same assay, conditions: CypB

Q: How did the pIC50 turn out when `COc1ccccc1C1CCCN1C(=O)CNC(=O)NCc1ccc(N)nc1` (centres unmarked) [Compound F587, 1-((6-aminopyridin-3-yl)methyl)-3-(2-(2-(2-methoxyphenyl)pyrrolidin-1-yl)-2-oxoethyl)urea] was run?
A: Its pIC50 is 5.28.

Same assay, conditions: activity test at 100 μM on CypB

Q: How did the “Inhibition (%)” value turn out when `Nc1ccc(CNC(=O)NCC(=O)NCc2cccc(CN3CCOCC3)c2)cc1` [Compound F559] was run?
A: The value was 21.9%.

Q: Which “Inhibition (%)” value does the source give for `CC(C)N(Cc1cccc2c1OCO2)C(=O)CNC(=O)NCc1ccc(N)nc1` [Compound F590, 1-(((6-aminopyridin-3-yl)methyl)ureido)-N-(benzo[d][1,3]dioxol-4-ylmethyl)-N-isopropylacetamide] here?
A: Its value is 18.2%.

Q: `Nc1ccc(CNC(=O)NCC(=O)N2CCOCC2)cn1` [Compound F594] was tested. Which “Inhibition (%)” value did it give?
A: The value was 37.0%.

Q: With `CCOC(=O)CNC(=O)NCc1ccc(N)c2ccccc12` [Compound F577, ethyl 2-(3-((4-aminonapht-1-yl)methyl)ureido)acetate] as the compound, how does the “Inhibition (%)” value read?
A: Its value is 47.3%.

Q: For `CCOC(=O)CNC(=O)NCc1cccc2ccccc12` [Compound F490, ethyl 2-(3-((napht-1-yl)methyl)ureido)acetate], which “Inhibition (%)” value is on record?
A: Its value is 33.1%.

Q: “2-(3-(4-aminobenzyl)ureido)-N-2-phenyl-ethyl-N-methylacetamide [Compound F551]” was tested. Which “Inhibition (%)” value did it give?
A: The value was 20.8%.

Q: How did the “Inhibition (%)” value turn out when `Nc1ccc(CNC(=O)NCC(=O)N2CCCO2)cn1` [Compound F585, 1-((6-aminopyridin-3-yl)methyl-3-(2-isoxazolidin-2-yl)-2-oxoethyl)urea] was run?
A: Its value is 35.0%.

Q: With “(S)-1-((6-aminopyridin-3-yl)methyl)-3-(2-oxo-2-(2-(pyridin-3-yl)pyrrolidin-1-yl)ethyl)urea [Compound F588]” as the compound, how does the “Inhibition (%)” value read?
A: Its value is 23.2%.

Q: How did the “Inhibition (%)” value turn out when `CCOC(=O)CNC(=O)NCc1ccccc1-c1ccco1` [Compound F528] was run?
A: Its value is 38.9%.

Q: For `Nc1ccc(CNC(=O)NCC(=O)NCc2cccc(-n3cncn3)c2)cc1` [Compound F562, 2-(3-(4-aminobenzyl)ureido)-N-(3-(1H,1,2,4-triazol-1-yl)benzyl)acetamide], which “Inhibition (%)” value is on record?
A: The value was 28.0%.

Q: With `CCOC(=O)CNC(=O)NCc1cccc(-c2ncccn2)c1` [Compound F524] as the compound, how does the “Inhibition (%)” value read?
A: The value was 15.4%.

Q: Which “Inhibition (%)” value does the source give for `Nc1ccc(CNC(=O)Nc2cnc3sccn3c2=O)cn1` [Compound F596, 1-((6-aminopyridin-3-yl)methyl)-3-(5-oxo-5H-thiazolo[3,2-c]pyrimidin-6-yl)urea] here?
A: The value was 19.8%.

Reference: US8901295B2 (Institut National de la Sante et de la Recherche Medicale …, priority 2009, dated 2014)
